This is an account of results in patent publication EP3131902B1, “COMPOUNDS AS MODULATORS OF ROR GAMMA” (Boehringer Ingelheim International GmbH, priority 2014, dated 2015).

The term IC50 denotes the concentration at which inhibition is half-maximal.

The structures appear in SMILES notation.

One assay deals with T1, RORγ (Homo sapiens, UniProt P51449).
T1 construct: expressed in transfected cells; host or cells: HEK 293 cells, transiently transfected
T1 sequence (P51449 269-508 limits assumed): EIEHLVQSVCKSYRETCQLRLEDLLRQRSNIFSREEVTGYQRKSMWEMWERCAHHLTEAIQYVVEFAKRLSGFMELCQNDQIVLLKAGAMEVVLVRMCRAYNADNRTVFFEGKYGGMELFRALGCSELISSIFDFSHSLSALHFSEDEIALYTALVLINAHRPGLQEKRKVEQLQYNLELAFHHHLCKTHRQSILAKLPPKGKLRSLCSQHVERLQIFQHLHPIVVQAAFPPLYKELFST
Briefly: Reporter Gene Assay (RGA): nuclear receptor transactivation assay, inhibition of RORγ transactivation of a luciferase reporter in transiently transfected HEK 293 cells. It counts as cell-based.
Conditions: not given
The molecule `CC[C@H](C)n1c(=O)c(NCc2ccc(S(N)(=O)=O)cn2)nc2cnc(-c3c(OC)ncnc3C3CC3)nc21` [Example 122] had an IC50 of 150 nM.

In turn, `CCS(=O)(=O)c1ccc(CNc2nc3cnc(-c4c(OC)ncnc4C4CC4)nc3n(CC(C)(C)F)c2=O)nc1` [Example 106] had an IC50 of 1150 nM.

The molecule `CCS(=O)(=O)N1C[C@@H]2C(CNc3nc4cnc(-c5c(C)ncnc5C5CC5)nc4n([C@@H](C)C4CC4)c3=O)[C@@H]2C1` (stereo partly shown) [Example 163] yielded an IC50 of 160 nM.

Staying with this assay, now noted: read-out: RGA IC50.
Take `Cc1ncnc(C2CC2)c1-c1ncc2nc(NCc3ccc4c(c3)CCS4(=O)=O)c(=O)n([C@@H](C)C3CC3)c2n1` [Example 212]: the half-inhibitory concentration (IC50) was found to be 120 nM.

As to `CCS(=O)(=O)c1ccc(CNc2nc3cnc(-c4c(OC)ncnc4C4CC4)nc3n(C3(C#N)CC3)c2=O)nc1` [Example 50], the half-maximal inhibitory concentration (IC50) worked out at 4400 nM.

Take `CCC(CC)n1c(=O)c(NCc2ccc(S(=O)(=O)CC)cn2)nc2cnc(-c3c(C4CC4)ncnc3C3CC3)nc21` [Example 16]: the IC50 amounted to 320 nM.

In the case of `COCCS(=O)(=O)N1CCC(CNc2nc3cnc(-c4c(OC)ncnc4C4CC4)nc3n([C@@H](C)C3CC3)c2=O)CC1` [Example 169], the IC50 is 145 nM.

Consider `CCS(=O)(=O)N1CC2(CC(CNc3nc4cnc(-c5c(OC)ncnc5C5CC5)nc4n([C@@H](C)C4CC4)c3=O)C2)C1` [Example 152], for which the 50% inhibitory concentration (IC50) is 470 nM.

As to `COc1ncnc(C2CC2)c1-c1ncc2nc(NCc3ccc(S(C)(=O)=O)cn3)c(=O)n(C(C)C)c2n1` [Example 149], the half-maximal inhibitory concentration (IC50) turned out to be 305 nM.

As to `CS(=O)(=O)c1ccc(CNc2nc3cnc(-c4c(C5CC5)ncnc4C4CC4)nc3n(C3CC3)c2=O)cc1` [Example 46], the IC50 is 3000 nM.

For the molecule `CCS(=O)(=O)c1ccc(CNc2nc3cnc(-c4c(C)ncnc4C4CC4)nc3n([C@H]3CCC[C@@H]3C#N)c2=O)nc1` [Example 112], the 50% inhibitory concentration (IC50) was 920 nM.

As for `Cc1ncnc(C2CC2)c1-c1ncc2nc(NCc3ccc(S(=O)(=O)CC#N)cc3)c(=O)n(C(C)C)c2n1` [Example 171], the 50% inhibitory concentration (IC50) is 200 nM.

As for `CCCc1ncnc(C)c1-c1ncc2nc(NCc3ccc(S(=O)(=O)CC)cn3)c(=O)n(C(C)C)c2n1` [Example 172], the half-inhibitory concentration (IC50) turned out to be 440 nM.

With `CCS(=O)(=O)N1CCC(CNc2nc3cnc(-c4c(OC)ncnc4C4CC4)nc3n(C(C)C)c2=O)CC1` [Example 131], the concentration for half-maximal inhibition (IC50) is 205 nM.

For the molecule `Cc1ncnc(C2CC2)c1-c1ncc2nc(NCc3ccc(S(C)(=N)=O)cc3)c(=O)n([C@@H](C)C3CCC3)c2n1` (stereo partly shown) [Example 232], the concentration for half-maximal inhibition (IC50) is 180 nM.

As for `CCS(=O)(=O)c1ccc(CNc2nc3cnc(-c4c(C5CC5)ncnc4C4CC4)nc3n([C@H]3CCOC3)c2=O)cc1` [Example 174], the IC50 came to 275 nM.

For `CCS(=O)(=O)c1ccc(CNc2nc3cnc(-c4c(OC)ncnc4C4CC4)nc3n(C3CC3)c2=O)cc1` [Example 43], the IC50 was 2600 nM.

As for `CCS(=O)(=O)c1ccc(CNc2nc3cnc(-c4c(C)ncnc4C4CC4)nc3n([C@H]3CCC[C@H]3C#N)c2=O)nc1` [Example 111], the concentration for half-maximal inhibition (IC50) amounted to 460 nM.

With `CC[C@H](C)n1c(=O)c(NCc2ccc(S(=O)(=O)CC)cn2)nc2cnc(-c3c(C)ncnc3C(F)(F)F)nc21` [Example 58], the 50% inhibitory concentration (IC50) was 420 nM.

Turning to `Cc1ncnc(C2CC2)c1-c1ncc2nc(NCc3ccc(S(C)(=O)=O)cn3)c(=O)n(C3CCC3)c2n1` [Example 242], the IC50 worked out at 395 nM.

With `CCc1ncnc(C2CC2)c1-c1ncc2nc(NCc3ccc(S(C)(=N)=O)cc3)c(=O)n([C@@H](C)C3CC3)c2n1` (stereo partly shown) [Example 210], the half-inhibitory concentration (IC50) was 150 nM.

As for `CNS(=O)(=O)c1ccc(CNc2nc3cnc(-c4c(C)ncnc4C4CC4)nc3n([C@@H](C)C3CC3)c2=O)cc1` [Example 135], the half-maximal inhibitory concentration (IC50) was 240 nM.

For `CCS(=O)(=O)c1ccc(CNc2nc3cnc(-c4c(C5CC5)ncnc4C4CC4)nc3n(C3CC3)c2=O)cn1` [Example 51], the half-maximal inhibitory concentration (IC50) turned out to be 7600 nM.

Consider `CCc1ncnc(C2CC2)c1-c1ncc2nc(NCc3ccc(S(=O)(=O)CC)cc3)c(=O)n([C@H]3CCOC3)c2n1` [Example 175], for which the IC50 was determined as 380 nM.

As for `CC[C@@H](C)n1c(=O)c(NCc2ccc(S(N)(=O)=O)cn2)nc2cnc(-c3c(C)ncnc3C3CC3)nc21` [Example 235], the concentration for half-maximal inhibition (IC50) stood at 425 nM.

In the case of `COc1ncnc(C2CC2)c1-c1ncc2nc(NCc3ccc(S(C)(=O)=O)cn3)c(=O)n([C@@H](C)C(F)(F)F)c2n1` [Example 181], the IC50 worked out at 175 nM.

For the molecule `CC[C@H](C)n1c(=O)c(NCc2ccc(S(=O)(=O)CC)cn2)nc2cnc(-c3c(C)ncnc3C3CC3)nc21` [Example 20], the concentration for half-maximal inhibition (IC50) was 330 nM.

With `CCS(=O)(=O)c1cnc(CNc2nc3cnc(-c4c(OC)ncnc4C4CC4)nc3n([C@@H](C)C(F)(F)F)c2=O)nc1` [Example 187], the 50% inhibitory concentration (IC50) is 255 nM.
